What was measured:
A549, H460 cells = test: Fluorescence microscopy of NIR-ASM in NQO1 expressing cancer cells; format: cell-based, human
Procedure: (§1) Detection of NQO1 in live cells. Inspired by the excellent biocompatibility, the inventors investigated its performance in both NQO1 expressing cancer cells (A549, H460) and NQO1 non-expressing normal cells (IMR90, HUVEC). All cells were incubated with NIR-ASM (10 μM) for 60 min, washed with PBS and were imaged under a confocal microscope after counterstaining the nuclei with Hoechst 33342 (FIG. 12A). […] The higher expression of NQO1 protein in A549 and H460 cells and its absence in normal cells, IMR90 and HUVEC as found with western blot analysis correlated with the probe reactivity in cells (FIG. 12B). […] Cell sorting using flow cytometry is a well-established technology in clinical diagnostics and biomedical research. To assess the applicability of the NIR-ASM to rapidly detect and quantify in both cancer and normal cells based on NQO1 expression, the probe was incubated with cell suspensions for 60 min, and about 1×10^4 cells were analyzed on a flow cytometer.
Fluorescence imaging. Both cancer and normal cells were seeded into 6-well plates and cultured overnight in respective media at 37° C. Cells were treated with 10 μM NIR-ASM and incubated at 37° C. for 60 min. They were then treated with nuclear stain Hoechst 33342 for 5 min. Finally, the medium was replaced with PBS and the live cells were imaged using a multiphoton confocal fluorescence microscope (λex/em=488/644 nm). […]

IMR90 and HUVECs = test: Flow cytometry of NIR-ASM in NQO1-negative normal cell lines; format: cell-based, human
Procedure: as §1
Flow cytometry analysis. The endogenous NQO1 activity of cancer cells and normal cells was determined by flow cytometry after NIR-ASM exposure. Cells were incubated with 10 μM of NIR-ASM for 60 min, harvested by trypsinization and washed with PBS. For inhibitor study, cells were pretreated with NQO1 inhibitor ES936 (100 nM) for 6 h before adding the NIR-ASM. About 1×10^4 cells were analyzed by flow cytometry (λex=488 nm).

NQO1 in A549 cells = test: siRNA knockdown of NQO1 and NIR-ASM activation; format: cell-based, human; conditions: NQO1 expression silenced more than 70%, 60 min incubation, compared with the control
Procedure: (§2) Chemical and genetic approaches confirm the specificity of NIR-ASM for NQO1 in live tumor cells. A fluorescence probe with high sensitivity, simple operation, and excellent specificity will be an asset for the detection of NQO1 in situ. To assess the substrate selectivity of NIR-ASM for NQO1, both A549 and H460 cells were pretreated with 100 nM of NQO1 inhibitor ES936 for 6 h, before incubating with 10 μM NIR-ASM. […] The effect of ES936 on endogenous NQO1 activity and subsequent reactivity with NIR-ASM was also determined by flow cytometry. […] The presence of NQO1 protein in the transfected MDA-MB-231 cells and its absence in the untransfected control was confirmed by immunoblotting (FIG. 13E). Subsequently, the NQO1-negative and positive MDA-MB-231 cell lines were incubated with NIR-ASM and analyzed by fluorescence microscopy and flow cytometry for activation of the probe.
Knockdown of NQO1 by small interfering RNA (siRNA). NQO1 and scrambled or control siRNAs were introduced into cells using the X-tremeGENE siRNA transfection reagent (Roche) according to the manufacturer's instructions. 10 μl of transfection reagent was mixed with 80 pmol of siRNA and added to A549 cells in six-well plates. siRNA transfection efficiency was confirmed with Western blotting.

[1] = test system: NQO1-negative MDA-MB-231 cells; test: NIR-ASM in NQO1-negative control MDA-MB-231 cells; format: cell-based, human; conditions: microscopy and flow cytometry
Procedure: as §2
Fluorescence imaging. Both cancer and normal cells were seeded into 6-well plates and cultured overnight in respective media at 37° C. […] Finally, the medium was replaced with PBS and the live cells were imaged using a multiphoton confocal fluorescence microscope (λex/em=488/644 nm). […]
Flow cytometry analysis. The endogenous NQO1 activity of cancer cells and normal cells was determined by flow cytometry after NIR-ASM exposure. […] About 1×10^4 cells were analyzed by flow cytometry (λex=488 nm).

A549 tumor = test: In vivo real-time imaging of NQO1 in A549 xenografts with NIR-ASM; parameters: species or system nude mice
Procedure: In vivo real-time imaging of NQO1 in xenografts using NIR-ASM. In vivo real-time imaging offers a powerful tool for accurately diagnosing disease and suspicious lesions with valuable spatiotemporal precision. […] Tumor xenografts were established by implanting exponentially growing lung cancer cells (A549) subcutaneously into nude mice. When tumor growth reached the log phase, NIR-ASM (5 mg/kg in PEG:H2O:EtOH (6:3:1)) was given intravenously and subjected to whole-body fluorescence imaging using an In Vivo Imager (IVIS). […] No signal was apparent in other organs of the animal. To confirm the tumor-selective targeting ability of NIR-ASM, the host organs and tumor from the mice administered with NIR-ASM were harvested and their fluorescence was analyzed ex vivo using the same IVIS. […] Furthermore, the lysates from the tumor and various organs were electrophoresed and western blotted using the NQO1 antibody. NQO1 protein at detectable levels was seen only in the tumor lysate and not in other tissues, thus, reinforcing the specificity of in-vivo imaging (FIG. 14C).
In vivo bioimaging. […] All animals were monitored for activity, physical condition, body weight, and tumor growth. […] Fluorescence represented in log values of radiance is photons per second per square centimeter per steradian.

Compound: CC1=C(C)C(=O)C(C(C)(C)CC(=O)Nc2ccc(/C=C/C3=CC(=C(C#N)C#N)CC(C)(C)C3)cc2)=C(C)C1=O [NIR-ASM, (E)-N-(4-(2-(3-(dicyanomethylene)-5,5-dimethylcyclohex-1-en-1-yl)vinyl)phenyl)-3-methyl-3-(2,4,5-trimethyl-3,6-dioxocyclohexa-1,4-dien-1-yl)butanamide]
- fluorescence signal in NQO1 expressing cancer cells (A549, H460 cells; 10 μM, 60 min): bright NIR fluorescence signal
- cell permeability (A549, H460 cells; inferred from intracellular activation): confirm the cell permeability
- flow cytometry fluorescence signal, negative normal cells (IMR90 and HUVECs; 60 min, about 1×10^4 cells): minimal fluorescence
- intracellular stability (IMR90 and HUVECs; sustained low fluorescence in normal cells): intracellular stability of NIR-ASM without any non-specific activation
- NIR-ASM fluorescence after siRNA silencing of NQO1 (NQO1 in A549 cells): almost a total loss
- fluorescence in control (NQO1-negative) cells [1]: No fluorescence
- time at which tumor fluorescence signal reached the plateau (A549 tumor; 5 mg/kg intravenously): 30 min
- ex vivo fluorescence in tumor and organs (A549 tumor; organs harvested after NIR-ASM): observed only in the tumor and not in any other major organs

— patent US11957766B2, “HNQO1-activatable fluorescent probe for imaging cancer cells in-vitro and in-vivo” (Texas Tech University System, priority 2019, dated 2024)
